{"source": "paper PMC4091635", "about": "(Bioorganic & medicinal chemistry, 2014)", "system": "transformed PSC (human pancreatic stellate cells)", "assay": "AlamarBlue Cell Viability Assay, PSC proliferation", "format": "cell-based", "conditions": "mean of at least three independent experiments, NE: No effect", "data": [{"smiles": "COc1cc(OC)c2c(=O)cc(-c3ccc(O)cc3)oc2c1", "note": "[Compound 6, 2-(4-Hydroxy-phenyl)-5,7-dimethoxy-chromen-4-one]", "values": [{"measurement": "Inhibitory Effect (%) 20 μM", "value": "no significant antiproliferative effect"}]}]}
